Results reported in patent US10294253B2, “Siloxane-containing phospholipids, compositions and uses thereof” (priority 2016, dated 2019).
Values joined by “and” are separate entries in the source; they are usually repeats but may differ in a detail not shown here. Equal values may be shown once. Read-outs that look alike come from different tables or passages of the source. Marks after values point to notes of the source that are not given here.

Experiments:
[1] = literature value; cited from earlier work
[2] = Small-angle X-ray scattering (SAXS) of vesicle suspensions, 3-Gaussian electron density model; type: physicochemical; details: for ρC (fit parameter, hydrocarbon chain electron density relative to water) / zH (fit parameter, position of headgroup Gaussian) / σC (fit parameter, standard deviation of hydrocarbon Gaussian) / σH (fit parameter, standard deviation of headgroup Gaussian): 20° C, POPC ULVs with 5 mol % POPG; for ρC (fit parameter, hydrocarbon chain electron density relative to water): extruded 100 nm, SiPC freeze-thaw; for ρC (fit parameter, hydrocarbon chain electron density relative to water) / SAXS curve: bilayer-bilayer structure factor (Bragg peak), lamellarity: not extruded; for zH (fit parameter, position of headgroup Gaussian) / σC (fit parameter, standard deviation of hydrocarbon Gaussian) / σH (fit parameter, standard deviation of headgroup Gaussian): extruded, SiPC not extruded; for derived lipid volume / derived lipid volume relative to the volume from the atomic covalent radii: 3-Gaussian model; for SAXS curve: bilayer-bilayer structure factor (Bragg peak), lamellarity: freeze-thaw liposomes
Procedure: (§1) SiPCs were prepared as described above in Example 1. Aqueous dispersions of SiPCs were prepared by five freeze-thaw cycles to give opaque suspensions of vesicles suitable for Small-angle X-ray scattering (SAXS) analysis. Dispersion particle size was determined by dynamic light scattering (DLS) with a Nano Zetasizer ZS90 (Malvern Instruments, Worcestershire, U.K.).
(§2) 1-Palmitoyl-2-oleoyl-sn-3-glycercophosphocholine (POPC) and 1-palmitoyl-2-oleoyl-sn-3-glcyercophosphoglycerol (POPG) were purchased from Avanti Polar Lipids (Alabaster, Ala.) and used as received. POPC and 5 mol % POPG were co-dissolved in a chloroform:methanol (3:1) mixture. POPC was doped with 5 mol % POPG, to minimize pauci-lamellar vesicle contamination. Solvent was removed under a gentle stream of dry nitrogen gas then was put under vacuum for 8 hours. POPC:POPG film was hydrated with ultrapure water to a concentration of ˜30 mg/mL. ULVs were prepared using a manual miniextruder (Avanti Polar Lipids, Alabaster, Ala.), assembled with a 100 nm pore-diameter polycarbonate filter. The lipid suspension was passed through the filter 31 times. SAXS data were collected at the P12 BioSAXS beamline at the storage ring PETRA III (synchrotron DESY, Hamburg)^26 at a temperature of 20° C. SAXS data were visualized, averaged and the background was subtracted using ATSAS^27 and modelled using the method of Pabst et al.^28 The data was fit utilizing a standard non-linear least-squares fitting (NLSF) scheme within Origin (OriginLab, USA). Vesicle size was determined by dynamic light scattering (DLS) with a Nano Zetasizer ZS90 (Malvern Instruments, Worcestershire, U.K.)
SAXS is sensitive to the presence of multilamellar vesicles (MLVs) and is used to evaluate the presence of MLVs. Shown in FIG. 2 are SAXS data for an about 40 mM POPC vesicle suspension in water as 100 nm ULV (black) and MLVs (gray). For MLVs, density correlations between the stacked bilayers give rise to a bilayer-bilayer structure factor also known as Bragg Peaks at a length scale corresponding to integer multiples of the lamellar repeat distance (e.g., the first Bragg order at q˜0.1 Å^−1, corresponding to a lamellar repeat distance of ˜63 Å).
The scattering regime where bilayer structure (as opposed to vesicle sphericity) dominates the form factor is of most interest as information about vesicle size is obtained from the DLS. The scattered intensity of a dilute vesicle suspension is given by:
The functional model chosen to describe the electron density of the siloxane phospholipids is the three Gaussian model as outlined by Pabst et al. (2000).^28 In this model, the electron distribution is the summation of the headgroups, described by a single Gaussian (in total 2, one for each leaflet of the bilayer) and a Gaussian representing the hydrocarbon chains, Eqn 2.
The position of the Gaussian peak is at zi where i=H or C and zC=0, with a standard deviation of σi. For simplicity, ρH−ρw and ρC−ρw are referred to herein as ρH and ρC respectively. The form factor of this electron density model can then be calculated analytically by applying Eqn 3: F(q)=∫ρ(z)exp(iqz)dz (3) which yields:
Only the cosine terms remain due to the centrosymmetric nature of a single component lipid bilayer. A benefit of this method is that structural parameters can be derived from simple geometric relationships, without the need of volumetric data. Typically area per lipid AL is one of the more desirable structural parameters to be extracted from the data. To begin, the transverse structure of the bilayer is derived (along the bilayer normal), such as the hydrocarbon length (dC) and the headgroup thickness (dH). Simply, dH can be estimated from the full width at half maximum (FWHM) of the Gaussian describing the headgroups. Using dH, dC can be determined as: […]

[3] = Dynamic light scattering (DLS) of liposome suspensions; type: physicochemical; details: for Dia. (vesicle diameter, most abundant population) / Rel. pop. (most abundant population) / Dia. (vesicle diameter, second population) / Rel. pop. (second population): aqueous suspension; for Dia. (vesicle diameter, most abundant population): POPC with 5 mol % POPG extruded through 100 nm membrane, SiPC not extruded; for Rel. pop. (most abundant population): first population; for polydispersity: most abundant population, liposomes not extruded
Procedure: POPC ULVs contain 5 mol % of 1-palmitoyl-2-oleoyl-sn-3-glcyercophosphoglycerol (POPG) and were extruded through a 100 nm polycarbonate membrane. SiPC suspensions were not extruded.
as §1, §2
The diameter standard deviation (a) for the vesicles (most abundant population) was below 20% of the diameter for liposomes of 1,2-SiPC and 1,3-SiPC, thus implying very low polydispersities of 0.16 and 0.19 respectively.

[4] = fixed using experimentally determined volume, cited from earlier work; for ρH (fit parameter, headgroup electron density relative to water): 20° C
[5] = literature SDP model; cited from earlier work
[6] = Langmuir isotherms of phospholipid monolayers; type: physicochemical; details: 21.5° C
Description: The interfacial phase behaviour of lipids and phospholipids is an important area of study. Data from Langmuir isotherms can give insight into packing behaviour and collapse mechanisms of phospholipid monolayers. FIG. 1 presents the Langmuir isotherms for 1,2-SiPC, 1,3-SiPC, 1,2-dipalmitoyl-sn-3-phosphocholine (DPPC), and 1-palmitoyl-2-oleoyl-sn-3-phosphocholine (POPC). DPPC and POPC are biologically relevant lipids that are commonly used as model systems in the study of membrane topology. These two lipids differ in the degree of unsaturation with POPC containing a single unit of unsaturation in the oleic acid FA chain. […] The surface area at the collapse of 1,2-SiPC was approximately 70 Å^2 and that for 1,3-SiPC was 87 Å^2. Both of these values are larger than those observed for DPPC and POPC.
While not wishing to be bound by theory, the larger size of the siloxane tails strongly affects the mean molecular area of the lipid as well as the lipid area at monolayer collapse. Furthermore, the rotational freedom of the siloxane unit leads to behaviour similar to that for unsaturated phospholipids such as POPC.

[7] = geometrically derived from SAXS fit

| ρC (fit parameter, hydrocarbon chain electron density relative to water) [2] [e/Å^3] | zH (fit parameter, position of headgroup Gaussian) [2] [Å] | σC (fit parameter, standard deviation of hydrocarbon Gaussian) [2] [Å] | σH (fit parameter, standard deviation of headgroup Gaussian) [2] [Å] | AL (area per lipid) [2, 7] | VC (hydrocarbon volume) [2, 7] [Å^3] | dB (bilayer thickness) [2, 7] | dC (hydrocarbon length) [2, 7] | dH (headgroup thickness) [2, 7] [Å] | dHH (headgroup-headgroup distance) [2, 7] | Dia. (vesicle diameter, most abundant population) [3] [nm] | Rel. pop. (most abundant population) [3] [%] | surface area at the collapse of the monolayer [6] | derived lipid volume [2] [Å^3] | derived lipid volume relative to the volume from the atomic covalent radii [2] [factor] | Dia. (vesicle diameter, second population) [3] [nm] | Rel. pop. (second population) [3] [%] | SMILES | ρH (fit parameter, headgroup electron density relative to water) [4] | VH (PC headgroup volume) [4] | SAXS curve: bilayer-bilayer structure factor (Bragg peak), lamellarity [2] | further results |
| --- | --- | --- | --- | --- | --- | --- | --- | --- | --- | --- | --- | --- | --- | --- | --- | --- | --- | --- | --- | --- | --- |
| – | – | – | – | – | – | – | – | – | – | – | – | – | – | – | – | – | CC(C)CCCC(C)CCCC(C)CCCC(C)CC(=O)OC[C@H](COP(=O)([O-])OCC[N+](C)(C)C)OC(=O)CC(C)CCCC(C)CCCC(C)CCCC(C)C (stereo partly drawn) [diPhyPC, 1,2-diphytanoyl-sn-glycero-3-phosphatidylcholine] | – | – | – | AL (area per lipid) [1]: 78 Å^2 |
| −0.152 ± 0.002 | 18.16 ± 0.08 | 6.9 ± 0.2 | 3.77 ± 0.06 | 58.9 ± 2^ Å^2 | 961 ± 27 | 43.7 Å and 43.7 ± 0.2 Å | 14.4 Å and 14.4 ± 0.1 Å | 7.5 ± 0.2 | 36.3 Å and 36.3 ± 0.1 Å | 98.1 | 100 | – | – | – | – | – | CCCCCCCC/C=C\CCCCCCCC(=O)O[C@H](COC(=O)CCCCCCCCCCCCCCC)COP(=O)([O-])OCC[N+](C)(C)C [POPC, 1-palmitoyl-2-oleoyl-sn-3-phosphocholine, reference compound] | 0.1609^a e/Å^3 | 331^a Å^3 | – | lamellar repeat distance ([2]; about 40 mM POPC MLVs in water, first Bragg order at q~0.1 Å^-1): ~63 Å; derived AL (area per lipid) [2, 7]: 58.9±2 Å; AL, SDP model derived [5]: 62.7±1 Å; dB (bilayer thickness), SDP analysis [5]: 39.8 Å; dC (hydrocarbon length), SDP analysis [5]: 14.6 Å; dHH (headgroup-headgroup distance), SDP analysis [5]: 37.4 Å |
| −0.106 ± 0.002 | 18.2 ± 0.05 | 14.1 ± 0.2 | 4.6 ± 0.1 | 69 ± 2 Å^2 | 1243 ± 42 | 45.5 ± 0.3 Å | 9.9 ± 0.5 Å | 9.1 ± 0.3 | 36.3 ± 0.1 Å | 193.7 | 79 | approximately 70 Å^2 | 1574 | 7 | 949.8 | 21 | C[N+](C)(C)CCOP(=O)([O-])OCC(COC(=O)CCCCCCCCC[Si](C)(C)O[Si](C)(C)O[Si](C)(C)C)OC(=O)CCCCCCCCC[Si](C)(C)O[Si](C)(C)O[Si](C)(C)C (racemic) [1,2-SiPC] | 0.1609^a e/Å^3 | 331^a Å^3 | without the presence of a bilayer-bilayer structure factor (Bragg Peak) | polydispersity [3]: 0.16 |
| −0.101 ± 0.003 | 17.6 ± 0.1 | 13.3 ± 0.3 | 4.3 ± 0.2 | 72 ± 4 Å^2 | 1246 ± 81 | 43.9 ± 0.4 Å | 13.2 ± 0.2 Å | 8.6 ± 0.5 | 35.3 ± 0.1 Å | 123.4 | 89 | 87 Å^2 | 1577 | 7 | 684.9 | 11 | C[N+](C)(C)CCOP(=O)([O-])OC(COC(=O)CCCCCCCCC[Si](C)(C)O[Si](C)(C)O[Si](C)(C)C)COC(=O)CCCCCCCCC[Si](C)(C)O[Si](C)(C)O[Si](C)(C)C [1,3-SiPC] | 0.1609^a e/Å^3 | 331^a Å^3 | without the presence of a bilayer-bilayer structure factor (Bragg Peak) | polydispersity [3]: 0.19 |
